One assay relates to lymphoma cell line DB. Description: Serial dilutions: fixed ABT-199 concentration with Compound A titration, six-day cell proliferation. In kind it is cell-based. The method, then: Serial dilutions were performed for the combination to ascertain the change in gIC50, gIC100 and dEC50 when the inhibitors are used together in a PRMT5 inhibitor cell proliferation. A first compound plate was prepared where PRMT5 inhibitor, Compound A, was prepared with a 20-point, two-fold dilution series of compound A from column 1 to 20. A second compound plate was prepared using the BCL-2 inhibitor ABT-199. ABT-199 was titrated in a 16-point 2-fold dilution series from row A to Q. A third plate was then created by added equal volume of 12 ul (ABT-199) from each well in the second plate into the corresponding well in the first plate. The third plate comprised rows from A to Q, each row comprising a fixed concentration of ABT-199. Columns 1-20 comprised varying concentrations of compound A from the 20-point dilution. Plates were incubated for six days at the conditions described above. Lymphoma cell line DB was treated with the solution in each of the wells. Cell growth was measured using CellTiter-Glo (Promega) and luminescence signal was detected with a BioTek Synergy Neo microplate reader. A plate of untreated cells was read at the time of compound/biologic addition to determine the T0 value representing the starting number of cells. Data were fit with a four-parameter equation to generate a concentration response curve for each row using Assay Client software. A comparison was made across each row in the third plate to determine, when keeping a fixed concentration of ABT-199, what concentration of compound A is needed to reach the gIC50, gIC100 or dEC50 respectively and the fold change compared to treating the same cell with compound A alone.
Tables 4a-c show the results of the above serial dilution experiments wherein ‘fold change’ is the difference between the amount of compound A needed to achieve gIC50, gIC100 or dEC50 respectively, compared to the amount of compound A needed to achieve gIC50, gIC100 or dEC50 respectively when compound A is given as a single agent.

In another assay the test system is Z-138. Description: Standard 6-day growth-death assay, Z-138 as control for Compound A. Particulars: single agent or fixed 1:1 combination. It is filed as cell-based. The method, then:
The majority cell lines were obtained from GSK BioCat group, American Type Culture Collection (ATCC), or the Deutsche Sammlung von Mikroorganismen and Zellbulturen (DSMZ). All cell lines were maintained in growth medium in T75 cm^2 flasks, incubated at 37° C. with 5% CO2 and split every 3 to 4 days. Growth media conditions and cell line information are detailed in Table 1. Cells were counted using the Vi-Cell Analyzer (Beckman Coulter ViCell) to obtain viable cell counts.
Optimal cell seeding density was determined for all cell lines by monitoring proliferation over a range of seeding densities in 384-well format and identifying the seeding density at which cells grew logarithmically throughout six days. 50 uL of cells per well were plated in 384-well plates at the optimal seeding density in preferred supplemented culture media. Three plates were prepared per cell line and incubated overnight at 37° C. in 5% CO2.
In these studies, lymphoma cell lines were treated with PRMT5 inhibitor, compound A and BCL-2 targeted inhibitor, ABT-199 single agent or in combination using a fixed 1:1 ratio of each inhibitor over a 20-point titration. For compound A single and fixed 1:1 ratio combination with ABT-199 cell proliferation assay, cells were treated in duplicate with a 20-point, two-fold dilution series of Compound A, ABT-199 (≥14 μM top dose) single or combo treatment, and ≤0.15% DMSO final concentration. Plates were incubated for six days at the conditions described above. Cell growth was measured using CellTiter-Glo (Promega) and luminescence signal was detected with a BioTek Synergy Neo microplate reader. A plate of untreated cells was read at the time of compound/biologic addition to determine the T0 value representing the starting number of cells. Data were fit with a four-parameter equation to generate a concentration response curve using Assay Client software.
Results were background corrected by subtraction of values from wells containing no cells, expressed as a percentage of the T0 value (value at time=0), and plotted against compound concentration. The T0 value was normalized to 100% and represents the number of cells present at the time of compound addition. The cellular response was determined for each compound using a 4- or 6-parameter curve fit of cell viability against concentration using Assay Client software. Growth IC50 (gIC50) values correspond to the concentration intersecting the mid-point of the growth window (between DMSO and T0 values). Growth IC100 (gIC100) values correspond to the concentration at which 100% growth inhibition is achieved, based on the growth window. The Ymin−T0 value, a measure of net population cell growth or death, is calculated by subtracting the T0 value (100%) from the Ymin value (%) that is determined from the fit of the concentration response curve. Death EC50 (dEC50) values correspond to the concentration at which 50% net cell death is observed.
Individual curves were quality checked for three criteria: outlier data points, cell growth (population doubling ≥1.5), and proper curve fitting. […] Individual curves were QC checked for outlier data points, cell growth (population doubling ≥1.5), and proper curve fitting. Obvious outlier data points were omitted only as needed to ensure proper curve fit.
For fixed ratio screening, combination activity was assessed by the fold change in gIC50 compared to the 2 single agent curves by dividing the compound ratio as necessary. Combinations showing >3-fold and >5-fold change from single agent are described as below: • Fold changes ≥5 are considered to represent strong synergy. • Fold changes between 3.0 and 4.9 are considered to represent weak synergy. • Fold changes <3 are considered to represent no synergy.

The mark [1] stands for this setting: fixed ABT-199 with compound A titration, vs compound A alone.

Turning to `CC1(C)CCC(CN2CCN(c3ccc(C(=O)NS(=O)(=O)c4ccc(NCC5CCOCC5)c([N+](=O)[O-])c4)c(Oc4cnc5[nH]ccc5c4)c3)CC2)=C(c2ccc(Cl)cc2)C1` [ABT-199, venetoclax, reference compound], the EC50 in the assay on lymphoma cell line DB (144 h, single agent, six days, read-out: dEC50) was more than 7.33 µM; with Z-138 (Homo sapiens, 144 h, average of n=2, read-out: dEC50), 3.12 µM. The IC50 in the assay with lymphoma cell line DB (144 h, single agent, six days, read-out: gIC50) was determined as 6.41 µM; in the assay with Z-138 (Homo sapiens, 144 h, average of n=2, read-out: gIC50), 0.014 µM. Also, in the assay with lymphoma cell line DB (fixed ABT-199 with compound A titration), the “concentration of ABT-199 at which ≥3 fold change was achieved in dEC50” value was 1833 nM. The “concentration of ABT-199 at which ≥3 fold change was achieved in gIC50” value with lymphoma cell line DB (setting [1]) was 115 nM. Also, the “concentration of ABT-199 at which ≥3 fold change was achieved in gIC100” value in the assay on lymphoma cell line DB (setting [1]) came to 458 nM. Moreover, the gIC100 in the assay with lymphoma cell line DB (single agent, six days) turned out to be 7.331 µM; in the assay on Z-138 (average of n=2) it was 1119 nM. Moreover, the Ymin-T0 with Z-138 (average of n=2) was −78%.
